#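 Method: 48-hour compound exposure of cells in 96-well plates, five concentrations, linear interpolation of endpoints. GI50 is the concentration that inhibits growth by half.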 Active and inactive are the calls of the source. No stated cut-off is given here; in the data, active = GI50 up to about 1.1 µM and inactive = higher.
# Columns and labels:
# Experiment in all cases: inhibition of tumour cell growth, NCI panel, 48 h
# 786-0 = test system: 786-0
# A549 = test system: A549
# ACHN = test system: ACHN
# CAKI-1 = test system: CAKI-1
# CCRF-CEM = test system: CCRF-CEM
# COLO 205 = test system: COLO 205
# DLD-1 = test system: DLD-1
# DMS-114 = test system: DMS-114
# DMS-273 = test system: DMS-273
# EKVX = test system: EKVX
# HCC 2998 = test system: HCC 2998
# HCT-116 = test system: HCT-116
# HCT-15 = test system: HCT-15
# HL-60 = test system: HL-60
# HOP-18 = test system: HOP-18
# HOP-62 = test system: HOP-62
# HT-29 = test system: HT-29
# K562 = test system: K562
# KM12 = test system: KM12
# LOX IMVI = test system: LOX IMVI
# M14 = test system: M14
# M19-MEL = test system: M19-MEL
# MOLT-4 = test system: MOLT-4
# Malme-3M = test system: Malme-3M
# NCI-H226 = test system: NCI-H226
# NCI-H23 = test system: NCI-H23
# NCI-H522 = test system: NCI-H522
# OVCAR-3 = test system: OVCAR-3
# OVCAR-4 = test system: OVCAR-4
# OVCAR-5 = test system: OVCAR-5
# OVCAR-8 = test system: OVCAR-8
# RPMI-8226 = test system: RPMI-8226
# SF-268 = test system: SF-268
# SF-295 = test system: SF-295
# SF-539 = test system: SF-539
# SK-MEL-28 = test system: SK-MEL-28
# SK-MEL-2 = test system: SK-MEL-2
# SK-MEL-5 = test system: SK-MEL-5
# SN12C = test system: SN12C
# SNB-19 = test system: SNB-19
# SNB-75 = test system: SNB-75
# SNB-78 = test system: SNB-78
# SR = test system: SR
# SW-620 = test system: SW-620
# TK-10 = test system: TK-10
# UACC-257 = test system: UACC-257
# UO-31 = test system: UO-31
# XF498 = test system: XF498
# A498 = test system: A498
# HOP-92 = test system: HOP-92
# IGROV-1 = test system: IGROV-1
# KM-20L2 = test system: KM-20L2
# LXFL 529 = test system: LXFL 529
# NCI-H460 = test system: NCI-H460
# RXF 393 = test system: RXF 393
# SK-OV-3 = test system: SK-OV-3
# UACC-62 = test system: UACC-62
# U-251 = test system: U-251
smiles,measurement,setting,value
CC1=NN(C(=O)Cc2ccccc2)C(=O)/C1=C\c1ccco1,GI50,786-0,> 100 µM (inactive)
same,GI50,A549,> 100 µM (inactive)
same,GI50,ACHN,> 100 µM (inactive)
same,GI50,CAKI-1,> 100 µM (inactive)
same,GI50,CCRF-CEM,> 100 µM (inactive)
same,GI50,COLO 205,> 100 µM (inactive)
same,GI50,DLD-1,> 100 µM (inactive)
same,GI50,DMS-114,> 100 µM (inactive)
same,GI50,DMS-273,> 100 µM (inactive)
same,GI50,EKVX,> 100 µM (inactive)
same,GI50,HCC 2998,> 100 µM (inactive)
same,GI50,HCT-116,> 100 µM (inactive)
same,GI50,HCT-15,> 100 µM
same,GI50,HL-60,> 100 µM (inactive)
same,GI50,HOP-18,> 100 µM (inactive)
same,GI50,HOP-62,> 100 µM (inactive)
same,GI50,HT-29,> 100 µM (inactive)
same,GI50,K562,> 100 µM (inactive)
same,GI50,KM12,> 100 µM (inactive)
same,GI50,LOX IMVI,> 100 µM (inactive)
same,GI50,M14,> 100 µM (inactive)
same,GI50,M19-MEL,> 100 µM (inactive)
same,GI50,MOLT-4,> 100 µM (inactive)
same,GI50,Malme-3M,> 100 µM (inactive)
same,GI50,NCI-H226,> 100 µM (inactive)
same,GI50,NCI-H23,> 100 µM (inactive)
same,GI50,NCI-H522,> 100 µM (inactive)
same,GI50,OVCAR-3,> 100 µM (inactive)
same,GI50,OVCAR-4,> 100 µM (inactive)
same,GI50,OVCAR-5,> 100 µM (inactive)
same,GI50,OVCAR-8,> 100 µM (inactive)
same,GI50,RPMI-8226,> 100 µM (inactive)
same,GI50,SF-268,> 100 µM (inactive)
same,GI50,SF-295,> 100 µM (inactive)
same,GI50,SF-539,> 100 µM (inactive)
same,GI50,SK-MEL-28,> 100 µM (inactive)
same,GI50,SK-MEL-2,> 100 µM (inactive)
same,GI50,SK-MEL-5,> 100 µM (inactive)
same,GI50,SN12C,> 100 µM (inactive)
same,GI50,SNB-19,> 100 µM (inactive)
same,GI50,SNB-75,> 100 µM (inactive)
same,GI50,SNB-78,> 100 µM (inactive)
same,GI50,SR,> 100 µM (inactive)
same,GI50,SW-620,> 100 µM (inactive)
same,GI50,TK-10,> 100 µM (inactive)
same,GI50,UACC-257,> 100 µM (inactive)
same,GI50,UO-31,> 100 µM (inactive)
same,GI50,XF498,> 100 µM (inactive)
CC1(c2ccc(F)cc2)C2C(=O)NC(=O)C1C(=O)NC2=O (configuration not stated),GI50,786-0,> 100 µM (inactive)
same,GI50,A498,> 100 µM (inactive)
same,GI50,A549,> 100 µM (inactive)
same,GI50,ACHN,> 100 µM (inactive)
same,GI50,CAKI-1,> 100 µM (inactive)
same,GI50,CCRF-CEM,> 100 µM (inactive)
same,GI50,COLO 205,> 100 µM (inactive)
same,GI50,DLD-1,> 100 µM (inactive)
same,GI50,DMS-114,> 100 µM (inactive)
same,GI50,DMS-273,> 100 µM (inactive)
same,GI50,EKVX,> 100 µM (inactive)
same,GI50,HCC 2998,> 100 µM (inactive)
same,GI50,HCT-15,> 100 µM
same,GI50,HL-60,> 100 µM (inactive)
same,GI50,HOP-92,> 100 µM (inactive)
same,GI50,HT-29,> 100 µM (inactive)
same,GI50,IGROV-1,> 100 µM (inactive)
same,GI50,K562,> 100 µM (inactive)
same,GI50,KM-20L2,> 100 µM (inactive)
same,GI50,KM12,> 100 µM (inactive)
same,GI50,LOX IMVI,> 100 µM (inactive)
same,GI50,LXFL 529,> 100 µM (inactive)
same,GI50,M14,> 100 µM (inactive)
same,GI50,M19-MEL,> 100 µM (inactive)
same,GI50,MOLT-4,> 100 µM (inactive)
same,GI50,Malme-3M,> 100 µM (inactive)
same,GI50,NCI-H226,> 100 µM (inactive)
same,GI50,NCI-H23,> 100 µM (inactive)
same,GI50,NCI-H460,> 100 µM (inactive)
same,GI50,NCI-H522,> 100 µM (inactive)
same,GI50,OVCAR-3,> 100 µM (inactive)
same,GI50,OVCAR-4,> 100 µM (inactive)
same,GI50,OVCAR-5,> 100 µM (inactive)
same,GI50,OVCAR-8,> 100 µM (inactive)
same,GI50,RPMI-8226,> 100 µM (inactive)
same,GI50,RXF 393,> 100 µM (inactive)
same,GI50,SF-268,> 100 µM (inactive)
same,GI50,SF-295,> 100 µM (inactive)
same,GI50,SF-539,> 100 µM (inactive)
same,GI50,SK-MEL-28,> 100 µM (inactive)
same,GI50,SK-MEL-2,> 100 µM (inactive)
same,GI50,SK-MEL-5,> 100 µM (inactive)
same,GI50,SK-OV-3,> 100 µM (inactive)
same,GI50,SN12C,> 100 µM (inactive)
same,GI50,SNB-19,> 100 µM (inactive)
same,GI50,SNB-75,> 100 µM (inactive)
same,GI50,SNB-78,> 100 µM (inactive)
same,GI50,SW-620,> 100 µM (inactive)
same,GI50,TK-10,> 100 µM (inactive)
same,GI50,UACC-257,> 100 µM (inactive)
same,GI50,UACC-62,> 100 µM (inactive)
same,GI50,UO-31,> 100 µM (inactive)
same,GI50,XF498,> 100 µM (inactive)
COc1cc2c(cc1OC)C(=O)Cc1ccc3c(c1CNCC2)OCO3,GI50,786-0,> 100 µM (inactive)
same,GI50,A498,> 100 µM (inactive)
same,GI50,A549,> 100 µM (inactive)
same,GI50,ACHN,> 100 µM (inactive)
same,GI50,CAKI-1,> 100 µM (inactive)
same,GI50,CCRF-CEM,> 100 µM (inactive)
same,GI50,COLO 205,> 100 µM (inactive)
same,GI50,DLD-1,> 100 µM (inactive)
same,GI50,DMS-114,> 100 µM (inactive)
same,GI50,EKVX,> 100 µM (inactive)
same,GI50,HCC 2998,> 100 µM (inactive)
same,GI50,HCT-116,> 100 µM (inactive)
same,GI50,HCT-15,> 100 µM
same,GI50,HOP-18,> 100 µM (inactive)
same,GI50,HOP-62,> 100 µM (inactive)
same,GI50,HT-29,> 100 µM (inactive)
same,GI50,IGROV-1,> 100 µM (inactive)
same,GI50,K562,> 100 µM (inactive)
same,GI50,KM-20L2,> 100 µM (inactive)
same,GI50,KM12,> 100 µM (inactive)
same,GI50,LXFL 529,> 100 µM (inactive)
same,GI50,M14,> 100 µM (inactive)
same,GI50,M19-MEL,> 100 µM (inactive)
same,GI50,MOLT-4,> 100 µM (inactive)
same,GI50,Malme-3M,> 100 µM (inactive)
same,GI50,NCI-H23,> 100 µM (inactive)
same,GI50,NCI-H460,> 100 µM (inactive)
same,GI50,NCI-H522,> 100 µM (inactive)
same,GI50,OVCAR-3,> 100 µM (inactive)
same,GI50,OVCAR-4,> 100 µM (inactive)
same,GI50,OVCAR-5,> 100 µM (inactive)
same,GI50,OVCAR-8,> 100 µM (inactive)
same,GI50,RPMI-8226,> 100 µM (inactive)
same,GI50,SF-268,> 100 µM (inactive)
same,GI50,SF-295,> 100 µM (inactive)
same,GI50,SF-539,> 100 µM (inactive)
same,GI50,SK-MEL-28,> 100 µM (inactive)
same,GI50,SK-MEL-2,> 100 µM (inactive)
same,GI50,SK-MEL-5,> 100 µM (inactive)
same,GI50,SK-OV-3,> 100 µM (inactive)
same,GI50,SN12C,> 100 µM (inactive)
same,GI50,SNB-19,> 100 µM (inactive)
same,GI50,SNB-75,> 100 µM (inactive)
same,GI50,SNB-78,> 100 µM (inactive)
same,GI50,SW-620,> 100 µM (inactive)
same,GI50,TK-10,> 100 µM (inactive)
same,GI50,U-251,> 100 µM (inactive)
same,GI50,UACC-257,> 100 µM (inactive)
same,GI50,UACC-62,> 100 µM (inactive)
same,GI50,UO-31,> 100 µM (inactive)
same,GI50,XF498,> 100 µM (inactive)

# Source: ChEMBL document CHEMBL1201862, “PubChem BioAssay data set” (2004)
